Measurements: patent publication US12653191B2, “Active compound combinations” (Bayer Aktiengesellschaft, priority 2020, dated 2026)
Like-named read-outs stand apart in the source and are kept apart here.

Columns and labels:
Alternaria alternate = assay: in vitro-Test with fungal microorganisms, Method A (tables A1-A12); assay type: cell-based, Alternaria alternata
In short: (§1)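 Test compound in methanol plus alkylaryl-polyglycol-ether emulsifier was dried into wells, then liquid potato dextrose medium containing spores or mycelium of the fungus was added. Plates were incubated at 20° C and 85% relative humidity; growth read at 620 nm after 3-5 days, efficacy relative to untreated control.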

Alternaria alternata = assay: in vitro-Test with fungal microorganisms, Method B (tables A13-A22); assay type: cell-based; settings: Alternaria alternata
In short: (§2)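 Efficacy, relative to untreated control (0% = growth as in control, 100% = no growth), from photometric growth measurement at 600 nm after 3 to 7 days at 20° C., 85% relative humidity. Compound applied in methanol+emulsifier, solvent evaporated, then spore/mycelium-amended liquid medium added.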

Botrytis cinerea = assay: in vitro-Test with fungal microorganisms, Method A (tables B1-B14); assay type: cell-based; settings: Botrytis cinerea
In short: as §1

Cercospora beticola [1] = assay: in vitro-Test with fungal microorganisms, Method A (tables C1-C10); assay type: cell-based
In short: as §1

Cercospora beticola [2] = assay: in vitro-Test with fungal microorganisms, Method B (tables C11-C20); assay type: cell-based; settings: Cercospora beticola, read-out: Efficacy %
In short: as §2

[3] = test system: Colletotrichum lindemuthianum; assay: in vitro-Test with fungal microorganisms, Method A (tables D1-D8); assay type: cell-based; settings: Colletotrichum lindemuthianum
In short: as §1

Cordana musae [4] = assay: in vitro-Test with fungal microorganisms, Method A (tables E1-E8); assay type: cell-based; settings: Neocordana musae
In short: as §1

Cordana musae [5] = assay: in vitro-Test with fungal microorganisms, Method B (tables E9-E16); assay type: cell-based; settings: for Efficacy %: single substance
In short: as §2

Diaporthe citri [6] = assay: in vitro-Test with fungal microorganisms, Method A (tables F1-F11); assay type: cell-based; settings: Diaporthe citri
In short: as §1

Diaporthe citri [7] = assay: in vitro-Test with fungal microorganisms, Method B (tables F12-F15); assay type: cell-based
In short: as §2

Fusarium culmorum [8] = assay: in vitro-Test with fungal microorganisms, Method A (tables G1-G4); assay type: cell-based; settings: Fusarium culmorum, alone, read-out: Efficacy
In short: as §1

Fusarium culmorum [9] = assay: in vitro-Test with fungal microorganisms, Method B (tables G5-G15); assay type: cell-based; settings: Fusarium culmorum, read-out: Efficacy
In short: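 Steps: solvent evaporation leaves the compound coating the wells; fungus-inoculated liquid growth medium goes on top; absorbance at 600 nm is measured; incubation runs 3 to 7 days at 20° C. with 85% relative humidity. Inhibition is then read photometrically and expressed as efficacy against untreated control.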

Parastagonospora nodorum [10] = assay: in vitro-Test with fungal microorganisms, Method A (tables H1-H4); assay type: cell-based
In short: as §1

Parastagonospora nodorum [11] = assay: in vitro-Test with fungal microorganisms, Method B (tables H5-H8); assay type: cell-based; settings: Parastagonospora nodorum
In short: as §2

[12] = test system: Ustilago segetum var. avenae; assay: in vitro-Test with fungal microorganisms, Method A (tables I1-I5); assay type: cell-based
In short: as §1

[13] = test system: Ustilago segetum var. avenae; assay: in vitro-Test with fungal microorganisms, Method B (tables I6-I11); assay type: cell-based; settings: read-out: Efficacy %
In short: as §2

Colletotrichum coccodes = assay: in vitro-Test with fungal microorganisms, Method B (tables J1-J11); assay type: cell-based; settings: Colletotrichum coccodes
In short: as §2

[14] = read-out: Efficacy %, alone, 1.0 ppm
[15] = read-out: Efficacy %, alone, 5.0 ppm
[16] = read-out: Efficacy %, mixing partner alone, 0.04 ppm
[17] = read-out: Efficacy %, mixing partner alone, 0.2 ppm
[18] = read-out: Efficacy %, mixing partner alone, 1.0 ppm
[19] = read-out: Efficacy %, mixing partner alone, 5.0 ppm

Structure (SMILES): N#Cc1c[nH]cc1-c1cccc2c1OC(F)(F)O2 [(13.001) fludioxonil, fludioxonil]
- inhibition of growth at 0.04 ppm (Alternaria alternate; Alternaria, read-out: Efficacy %, applied alone, 0.04 ppm): 9%
- inhibition of growth at 0.2 ppm (Alternaria alternate; Alternaria, read-out: Efficacy %, applied alone, 0.2 ppm): 17%
- inhibition of growth at 1 ppm (Alternaria alternate; Alternaria, read-out: Efficacy %, applied alone, 1.0 ppm): 97%
- inhibition of growth at 5 ppm (Alternaria alternate; Alternaria, read-out: Efficacy %, applied alone, 5.0 ppm): 100%
- Efficacy % (Alternaria alternate; applied alone, 0.04 ppm): 0%
- inhibition of growth at 1 ppm (Alternaria alternata; read-out: Efficacy, 1 ppm): 88%
- inhibition of growth at 5 ppm (Alternaria alternata; read-out: Efficacy, 5 ppm): 100%
- inhibition of growth at 0.04 ppm (Alternaria alternata; read-out: Efficacy, single compound, 0.04 ppm): 13%
- inhibition of growth at 0.2 ppm (Alternaria alternata; read-out: Efficacy, single compound, 0.2 ppm): 18%
- inhibition of growth at 5 ppm (Alternaria alternata; read-out: Efficacy, single compound, 5 ppm): 99%
- inhibition of growth at 0.2 ppm (Botrytis cinerea; read-out: Efficacy %, alone, 0.2 ppm): 100%
- inhibition of growth at 1 ppm (Botrytis cinerea; [14]): 100%
- inhibition of growth at 5 ppm (Botrytis cinerea; [15]): 100%
- inhibition of growth at 0.04 ppm (Botrytis cinerea; read-out: Efficacy, 0.04 ppm): 19%
- inhibition of growth at 0.2 ppm (Botrytis cinerea; read-out: Efficacy, 0.2 ppm): 100%
- Efficacy % (Cercospora beticola [1]; 5.0 ppm alone): 98%
- inhibition of growth at 0.04 ppm (Cercospora beticola [1]; Cercospora beticola, read-out: Efficacy %, 0.04 ppm): 0%
- inhibition of growth at 0.04 ppm (Cercospora beticola [1]; Cercospora beticola, read-out: Efficacy %, 0.04 ppm alone): 0%
- inhibition of growth at 0.2 ppm (Cercospora beticola [1]; Cercospora beticola, read-out: Efficacy %, 0.2 ppm alone): 14%
- inhibition of growth at 1 ppm (Cercospora beticola [1]; Cercospora beticola, read-out: Efficacy %, 1.0 ppm): 55%
- inhibition of growth at 5 ppm (Cercospora beticola [1]; Cercospora beticola, read-out: Efficacy %, 5.0 ppm): 90%
- inhibition of growth at 5 ppm (Cercospora beticola [1]; Cercospora beticola, read-out: Efficacy %, 5.0 ppm alone): 93%
- inhibition of growth at 5 ppm (Cercospora beticola [2]): 93%
- inhibition of growth at 0.04 ppm [3, 16]: 11%
- inhibition of growth at 0.2 ppm [3, 17]: 60%
- inhibition of growth at 1 ppm [3, 18]: 85%
- inhibition of growth at 5 ppm [3, 19]: 90%
- inhibition of growth at 0.04 ppm ([3]; read-out: Efficacy %, single active at 0.04 ppm): 0%
- inhibition of growth at 0.2 ppm ([3]; read-out: Efficacy %, single active at 0.2 ppm): 58%
- inhibition of growth at 5 ppm ([3]; read-out: Efficacy %, single active at 5.0 ppm): 88%
- inhibition of growth at 0.04 ppm (Cordana musae [4]; [16]): 2%
- inhibition of growth at 0.2 ppm (Cordana musae [4]; [17]): 0%
- inhibition of growth at 1 ppm (Cordana musae [4]; [18]): 83%
- inhibition of growth at 5 ppm (Cordana musae [4]; [19]): 55%
- inhibition of growth at 0.04 ppm (Cordana musae [4]; read-out: Efficacy %, single substance, 0.04 ppm): 0%
- inhibition of growth at 0.04 ppm (Cordana musae [5]; Neocordana musae, read-out: Efficacy): 6%
- Efficacy % (Cordana musae [5]; 0.2 ppm): 0%
- Efficacy % (Cordana musae [5]; 1 ppm): 0%
- Efficacy % (Cordana musae [5]; 5 ppm): 11%
- inhibition of growth at 0.04 ppm (Diaporthe citri [6]; read-out: Efficacy, applied alone, 0.04 ppm): 0%
- inhibition of growth at 0.2 ppm (Diaporthe citri [6]; read-out: Efficacy, applied alone, 0.2 ppm): 0%
- Efficacy (Diaporthe citri [7]; Table F12, 0.2 ppm alone): 0%
- Efficacy (Diaporthe citri [7]; Table F12, 1 ppm alone): 9%
- Efficacy (Diaporthe citri [7]; Table F13, 1 ppm alone): 41%
- Efficacy (Diaporthe citri [7]; Table F13, 5 ppm alone): 0%
- inhibition of growth at 0.2 ppm (Fusarium culmorum [8]; 0.2 ppm): 36%
- inhibition of growth at 1 ppm (Fusarium culmorum [8]; 1.0 ppm): 98%
- inhibition of growth at 5 ppm (Fusarium culmorum [8]; 5.0 ppm): 99%
- inhibition of growth at 0.04 ppm (Fusarium culmorum [9]; alone): 0%
- inhibition of growth at 0.2 ppm (Fusarium culmorum [9]; alone): 22%
- inhibition of growth at 1 ppm (Fusarium culmorum [9]; alone): 68%
- inhibition of growth at 5 ppm (Fusarium culmorum [9]; 5 ppm, alone): 98%
- inhibition of growth at 0.04 ppm (Fusarium culmorum [9]; single active compound): 0%
- inhibition of growth at 0.2 ppm (Fusarium culmorum [9]; single active compound): 26%
- inhibition of growth at 1 ppm (Fusarium culmorum [9]; single active compound): 88%
- Efficacy (Parastagonospora nodorum [10]; 0.04 ppm): 0%
- Efficacy (Parastagonospora nodorum [10]; 0.2 ppm): 0%
- Efficacy (Parastagonospora nodorum [10]; single active compound, 0.04 ppm): 0%
- Efficacy (Parastagonospora nodorum [10]; single active compound, 0.2 ppm): 0%
- Efficacy (Parastagonospora nodorum [10]; single active compound, 1.0 ppm): 38%
- Efficacy (Parastagonospora nodorum [10]; single active compound, 5.0 ppm): 64%
- inhibition of growth at 1 ppm (Parastagonospora nodorum [11]; read-out: Efficacy, 1 ppm): 58%
- inhibition of growth at 5 ppm (Parastagonospora nodorum [11]; read-out: Efficacy, 5 ppm): 98%
- inhibition of growth at 0.04 ppm ([12]; read-out: Efficacy %, alone, 0.04 ppm): 19%
- inhibition of growth at 1 ppm [12, 14]: 100%
- inhibition of growth at 5 ppm [12, 15]: 100%
- inhibition of growth at 0.04 ppm [13]: 55%
- inhibition of growth at 0.2 ppm [13]: 93%
- inhibition of growth at 5 ppm [13]: 100%
- inhibition of growth at 0.04 ppm (Colletotrichum coccodes; read-out: Efficacy %, 0.04 ppm): 54%
- inhibition of growth at 1 ppm (Colletotrichum coccodes; read-out: Efficacy %, 1 ppm): 100%
- inhibition of growth at 5 ppm (Colletotrichum coccodes; read-out: Efficacy %, 5 ppm): 100%
- inhibition of growth at 0.04 ppm (Colletotrichum coccodes; read-out: Efficacy %, single active compound at 0.04 ppm): 74%
